“Also recorded” adds a separate entry of the source.
What was measured:
[1] = biological target: T1, human FIXa (Homo sapiens, UniProt P00740); assay: Chromogenic FVIII-like (FXa generation) assay with human FIXa added; type: biochemical
T1 construct: with (+) and without (−) addition of 50 ng human FIXaβ; purchased ERL (Enzyme Research Laboratories)
Protocol: The chromogenic activity of these antibody preparations was measured in the following FXa generation kinetic assay: 10 μg of monoclonal antibody (in 25 μl) were transferred to microtiter plate wells and warmed to 37° C. Chromogenic substrate (S-2222), synthetic thrombin inhibitor (I-2581), factor IXa and FX were reconstituted in sterile water and FIXa/FX (both bovine) were mixed with phospholipids according to the supplier's protocol. Per reaction, 50 μl of the phospholipid/FIXa/FX solution were combined with 25 μl CaCl2 (25 mM) and 50 μl of the substrate/inhibitor cocktail. To start the reaction, 125 μl of the premix were added to the monoclonal antibody solution in the microtiter plates and incubated at 37° C. Absorbance at 405 nm and 490 nm of the samples was read at various times (5 min to 2 h) against a reagent blank ([…] TBS instead of monoclonal antibodies) in a Labsystems iEMS Reader MF™ microtiter plate reader using GENESIS™ software. In parallel, the same reactions were performed except that 50 ng human FIXa were added per reaction.
To analyze the FVIII-like (FIXa activating) activity of the peptides, an assay system based on a commercial available FVIII assay was developed (see examples 2 and 4). The basic principle is, that without a cofactor, FIXa will have very limited activity towards its natural substrate FX. […] The amount of FXa generated is monitored by cleavage of a chromogenic substrate. The principle of the revised chromogenic assay is described for two representative peptides: A1/3 and A1/5 (Table 2). Briefly, 25 μl aliquots of peptide stock solution (in imidazole buffer (IZ) 50 mM imidazole, 100 mM NaCl, pH 7.2) were transferred to microtiter plate wells and warmed to 37° C. Chromogenic FXa substrate (S-2222), synthetic thrombin inhibitor (I-2581), bovine FIXa and bovine FX were reconstituted in sterile water and FIXa/FX mixed with phospholipids according to the supplier's protocol. […] Per reaction, 50 μl of the phospholipid/FIXa/FX solution were combined with 25 μl CaCl2 (25 mM) and 50 μl of the substrate/inhibitor cocktail. To start the reaction, 125 μl of the premix were added to the peptide solution in the microtiter plate and incubated at 37° C. Absorbance at 405 nm and 490 nm of the samples was read at various times (5 min to 2 h) against a reagent blank in a Labsystems iEMS Reader MF™ microtiter plate reader using GENESIS™ software.

[2] = tested on: FVIII deficient plasma; assay: aPTT based one stage clotting assay in FVIII deficient plasma; type: biochemical, human
Protocol: During normal hemostasis, FIX becomes initially activated either by the tissue factor (TF)/factor VIIa pathway or later on by activated factor XI (FXIa). Subsequent to its activation, FIXa associates on the platelet surface in a membrane bound complex with activated FVIII. […] Different amounts of antibody 193/AD3 or mouse IgG (as a control) were used in a standard aPTT based one stage clotting assay. Briefly, 100 μl of antibody-containing samples were incubated with 100 μl of FVIII deficient plasma (DP) and with 100 μl of DAPTTIN (PTT Reagent for determining activated Thromboplastin Time; IMMUNO AG) reagent, in a KC10A clotting analyzer. Where indicated, a total amount of 50 ng activated FIX was included in the reaction mixture. After a 4 minute incubation, the reaction was started by the addition of 100 μl CaCl2 (25 mM).
The peptides were also analyzed for their potential to reduce the clotting time in a FVIII deficient plasma. The aPTT based one stage clotting assay was essentially done as described (see example 6). Clotting times (time from starting the reaction to the “clot”-formation were compared either against FVIII, a buffer control (IZ) or a control peptide (scrambled version). The results of two typical clotting experiments done with two different aPTT reagents (DAPTTIN and Pathromtin SL) are shown in table 3A and table 3B.

T1 sequence (P00740 47-191 limits assumed): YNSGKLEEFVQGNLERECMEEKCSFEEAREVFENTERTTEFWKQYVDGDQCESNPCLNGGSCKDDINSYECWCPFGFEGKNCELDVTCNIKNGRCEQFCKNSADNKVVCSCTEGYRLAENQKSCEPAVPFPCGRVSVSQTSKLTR
T1 sequence (P00740 227-461 limits assumed): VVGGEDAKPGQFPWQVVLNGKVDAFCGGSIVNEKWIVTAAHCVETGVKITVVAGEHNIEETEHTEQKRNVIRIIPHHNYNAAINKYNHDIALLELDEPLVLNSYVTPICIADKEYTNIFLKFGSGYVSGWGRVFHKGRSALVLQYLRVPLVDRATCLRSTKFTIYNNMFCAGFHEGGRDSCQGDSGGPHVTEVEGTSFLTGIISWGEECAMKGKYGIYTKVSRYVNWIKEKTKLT

EEEEGGGFTVNWYFDEEE [B1/6]
FIXa activating activity in chromogenic assay ([1]; data not shown): no activity | clotting time ([2]; 12.5 nM peptide, (+) presence of activated human FIX): 100 s | clotting time ([2]; 12.5 nM peptide, (−) absence of activated human FIX): 111 s | clotting time ([2]; 0.125 μM peptide, (+) presence of activated human FIX): 101 s | clotting time ([2]; 0.125 μM peptide, (−) absence of activated human FIX): 111 s | clotting time ([2]; 1.25 μM peptide, (+) presence of activated human FIX): 100 s | clotting time ([2]; 1.25 μM peptide, (−) absence of activated human FIX): 110 s | clotting time ([2]; 12.5 μM peptide, (+) presence of activated human FIX): 103 s | clotting time ([2]; 12.5 μM peptide, (−) absence of activated human FIX): 115 s

EEEEGGGYYVNWYFDEEE [A1/2]
chromogenic FVIII-like activity (FXa generation) ([1]; 2.9 nM human FIXa): did not give any significant chromogenic activity

EYGEGYGEVNEYDEFEWE [A1/4]
chromogenic FVIII-like activity (FXa generation) ([1]; 2.9 nM human FIXa): did not give any significant chromogenic activity

FGVGYRGETRNFDW [B1/5]
FIXa activating activity in chromogenic assay ([1]; data not shown): no activity

REGGGFTVNWYFDR [B1/4]
chromogenic activity ([1]; chromogenic FVIII assay, data not shown): some chromogenic activity

RdRdRdGEYGVYWNGDFYRdRdRd [A1/3-Rd-srmb]
average clotting time ([2]; Table 4, 1.25 μM, 2.2 nM FIXa): 103 s | clotting time ([2]; Table 4, 1.25 μM, 2.2 nM FIXa, duplicate 1): 101.1 s | clotting time ([2]; Table 4, 1.25 μM, 2.2 nM FIXa, duplicate 2): 105.3 s | average clotting time ([2]; Table 4, 1.25 μM, w/o FIXa): 107 s | clotting time ([2]; Table 4, 1.25 μM, w/o FIXa, duplicate 1): 107.2 s | clotting time ([2]; Table 4, 1.25 μM, w/o FIXa, duplicate 2): 107.1 s | average clotting time ([2]; Table 4, 2.5 μM, 2.2 nM FIXa): 105 s | clotting time ([2]; Table 4, 2.5 μM, 2.2 nM FIXa, duplicate 1): 105 s | clotting time ([2]; Table 4, 2.5 μM, 2.2 nM FIXa, duplicate 2): 104.2 s | average clotting time ([2]; Table 4, 2.5 μM, w/o FIXa): 112 s | clotting time ([2]; Table 4, 2.5 μM, w/o FIXa, duplicate 1): 111.9 s | clotting time ([2]; Table 4, 2.5 μM, w/o FIXa, duplicate 2): 111.9 s | average clotting time ([2]; Table 4, 5 μM, 2.2 nM FIXa): 108 s | clotting time ([2]; Table 4, 5 μM, 2.2 nM FIXa, duplicate 1): 108.5 s | clotting time ([2]; Table 4, 5 μM, 2.2 nM FIXa, duplicate 2): 108.2 s | average clotting time ([2]; Table 4, 5 μM, w/o FIXa): 113 s | clotting time ([2]; Table 4, 5 μM, w/o FIXa, duplicate 1): 113.1 s | clotting time ([2]; Table 4, 5 μM, w/o FIXa, duplicate 2): 112.4 s | average clotting time ([2]; Table 4, 7.5 μM, 2.2 nM FIXa): 107 s | clotting time ([2]; Table 4, 7.5 μM, 2.2 nM FIXa, duplicate 1): 107.6 s | clotting time ([2]; Table 4, 7.5 μM, 2.2 nM FIXa, duplicate 2): 106.6 s | average clotting time ([2]; Table 4, 7.5 μM, w/o FIXa): 114 s | clotting time ([2]; Table 4, 7.5 μM, w/o FIXa, duplicate 1): 114.6 s | clotting time ([2]; Table 4, 7.5 μM, w/o FIXa, duplicate 2): 113.6 s | average clotting time ([2]; Table 4, 10 μM, 2.2 nM FIXa): 108 s | clotting time ([2]; Table 4, 10 μM, 2.2 nM FIXa, duplicate 1): 107.2 s | clotting time ([2]; Table 4, 10 μM, 2.2 nM FIXa, duplicate 2): 107.8 s | average clotting time ([2]; Table 4, 10 μM, w/o FIXa): 116 s | clotting time ([2]; Table 4, 10 μM, w/o FIXa, duplicate 1): 115.8 s | clotting time ([2]; Table 4, 10 μM, w/o FIXa, duplicate 2): 115.3 s | average clotting time ([2]; Table 4, 12.5 μM, 2.2 nM FIXa): 108 s | clotting time ([2]; Table 4, 12.5 μM, 2.2 nM FIXa, duplicate 1): 108.1 s | clotting time ([2]; Table 4, 12.5 μM, 2.2 nM FIXa, duplicate 2): 107.8 s | average clotting time ([2]; Table 4, 12.5 μM, w/o FIXa): 118 s | clotting time ([2]; Table 4, 12.5 μM, w/o FIXa, duplicate 1): 117.2 s | clotting time ([2]; Table 4, 12.5 μM, w/o FIXa, duplicate 2): 118 s | average clotting time ([2]; Table 4, 15 μM, 2.2 nM FIXa): 113 s | clotting time ([2]; Table 4, 15 μM, 2.2 nM FIXa, duplicate 1): 112.7 s | clotting time ([2]; Table 4, 15 μM, 2.2 nM FIXa, duplicate 2): 112.4 s | average clotting time ([2]; Table 4, 15 μM, w/o FIXa): 122 s | clotting time ([2]; Table 4, 15 μM, w/o FIXa, duplicate 1): 121.9 s | clotting time ([2]; Table 4, 15 μM, w/o FIXa, duplicate 2): 121.3 s

VRYRNRYRWGYRGRFGDE [A1/5]
chromogenic FVIII-like activity (FXa generation) ([1]; 2.9 nM human FIXa): inactive; also recorded: does not give rise to any FXa generation | chromogenic activity ([1]; 12 μM peptide, 2.3 nM human FIXa): no significant FXa generation

B1: 198/B1: anti-FIX/FIXa monoclonal IgG, ECACC No. 99090925; 198/AB2 is an identical subclone (protein)
scFv: EVQLQESGGGLVKPGGSLKLSCAASGFTFSSYTMSWVRQTPEKRLEWVATISSGGSSTYYPDSVKGRFTISRDNAKNTLYLQMSSLRSEDTAMYYCTREGGGFTVNWYFDVWGAGTLVTVSAGGGGSGGRASGGGGSENVLTQSPASLAVSLGQRATISCRASESVDSYGYNFMHWYQQIPGQPPKLLIYRASNLESGIPARFSGSGSRTDFTLTINPVEADDVATYYCQQSNEDPLTFGTGTRLEIKR
modifications: scFv derived from IgG; Description of Artificial Sequence:scFv from hybridoma cell line 198/AB2 (subclone of 198/B1)
notes: anti-FIX/FIXa monoclonal IgG, ECACC No. 99090925; 198/AB2 is an identical subclone
procoagulant activity ([2]; one-stage clotting assay in the presence of FIXa): show procoagulant activity

B2: 198/A1 Fab fragment: Fab fragment of antibody 198/A1 made with papain, purified on protein L (antibody, V domains shown)
VH: EVQLQESGGGLVKPGGSLKLSCAASGFIFSSYTMSWVRQTPEKRLEWVATISSGGSSTYYPDSVKGRFTISRDNAKNTLYLQMSSLKSEDTAMYHCTREGGGYYVNWYFDVWGAGTTLTVSS
VL: DIELTQSPASLAVSLGQRATISCRASESVDSYGKSFMHWYQQKPGQPPKLLIYRASNLESGIPARFSGSGSRTDFTLTINPVEADDVATYYCQQSNEDPLTFGAGTRLEIKR
chromogenic FVIII-like activity (FXa generation) ([1]; 2.3 nM human FIXa): still gives rise to FIX dependent FXa generation | chromogenic activity compared to intact antibody ([1]; 2.3 nM human FIXa): somewhat less activity

B3: MycHis-198AB2#102: 198/B1 (subclone AB2) scFv fragment with c-myc-tag and His6-tag (protein)
scFv: EVQLQESGGGLVKPGGSLKLSCAASGFTFSSYTMSWVRQTPEKRLEWVATISSGGSSTYYPDSVKGRFTISRDNAKNTLYLQMSSLRSEDTAMYYCTREGGGFTVNWYFDVWGAGTLVTVSAGGGGSGGRASGGGGSENVLTQSPASLAVSLGQRATISCRASESVDSYGYNFMHWYQQIPGQPPKLLIYRASNLESGIPARFSGSGSRTDFTLTINPVEADDVATYYCQQSNEDPLTFGTGTRLEIKR
modifications: left off: small tags and cut ends
notes: 198/B1 (subclone AB2) scFv fragment with c-myc-tag and His6-tag
chromogenic FVIII-like activity (FXa generation) ([1]; 2.3 nM human FIXa): gave rise to a substantial FXa generation

B4: 8860-M/H#4c: unrelated scFv of #8860 with c-myc-tag and His6-tag, negative control (protein)
scFv: EVQLQQSGPELVKPGASVKISCKASGYAFSSSWMNWVKQRPGQGLEWIGRIYPGNGDTNYNGKFKGKATLTADKSSSTAYMQLSSLTSVDSAVYFCADGNVYYYAMDYWGQGTSVTVSSGGGGSGGRASGGGGSQIVLTQSPASLAVSLGQRATISCRASKSVSTSGYSYMHWYQQKPGQPPKLLIYLASNLESGVPARFSGSGSGTDFTLNIHPVEEEDAATYYCQHSRELPRTFGGGTKLEIKRAAAEQKLISEEDLNGAAHHHHHH
chromogenic FVIII-like activity (FXa generation) ([1]; 2.3 nM human FIXa): did not
